Assay results: paper PMC7138817, “The [4Fe-4S] cluster of sulfurtransferase TtuA desulfurizes TtuB during tRNA modification in Thermus thermophilus” (Communications Biology, 2020)
The star is where a group is joined. thiocarboxylate = C-terminal -COSH in place of -COOH, S*

T1: holo-TtuA (Thermus thermophilus, UniProt Q72LF3)
T1 construct: TtuA without TtuB, prepared as in an earlier publication
T1 sequence (Q72LF3 1-321): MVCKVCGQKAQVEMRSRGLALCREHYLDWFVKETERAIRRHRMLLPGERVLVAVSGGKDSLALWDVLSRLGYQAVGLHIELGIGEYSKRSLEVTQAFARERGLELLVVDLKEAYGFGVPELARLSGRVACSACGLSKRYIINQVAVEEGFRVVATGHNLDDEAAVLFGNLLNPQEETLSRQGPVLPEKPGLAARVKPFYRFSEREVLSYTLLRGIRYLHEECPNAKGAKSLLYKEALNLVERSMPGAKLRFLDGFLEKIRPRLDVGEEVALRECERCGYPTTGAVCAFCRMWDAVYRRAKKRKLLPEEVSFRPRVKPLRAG

T2: holo-TtuA (purified alone, with [4Fe-4S] cluster) used for EPR with added TtuB-COSH (Thermus thermophilus, UniProt Q72LF3 1-321)
T2 construct: TtuA, Thermus thermophilus; carries a [4Fe-4S] cluster, reduced with sodium dithionite for EPR; also called DT-reduced TtuA; source: purified
T2 sequence (looked up): T1 sequence (Q72LF3 1-321)

B1: TtuB-COSH (TtuB with thiocarboxylated C-terminus) (natural protein, Thermus thermophilus, UniProt Q72LF4 1-65, looked up)
chain: MRVVLRLPERKEVEVKGNRPLREVLEELGLNPETVVAVRGEELLTLEDEVREEDTLEVLSAISGG-thiocarboxylate
notes: TtuB, ubiquitin-like sulfur donor protein, Thermus thermophilus; also called thiocarboxylated TtuB

Assays:
[1] = biological target: T3, holo-TthTtuA–TthTtuB complex (Thermus thermophilus, UniProt Q72LF3+Q72LF4); test: X-ray crystal structure, […] Å; format: binding; settings: reconstituted with ferric chloride and sulfide, anaerobic; bound by three Cys of TtuA, unique Fe coordinated by C-terminal carboxylate of TtuB
T3 construct: gene ttuA; co-expressed in E. coli B834(DE3) from pETDuet-1; His6-tag plus four residues at N-terminus of TtuB, TtuA untagged; TtuB-COOH form; TtuA-TtuB heterodimers

holo-TtuA = biological target: T1, holo-TtuA; test: EPR spectroscopy, X-band, […] K; format: binding; settings: dithionite-reduced, anaerobic, no TtuB
[2] = biological target: T2, holo-TtuA (purified alone, with …); test: EPR spectroscopy; purified holo-TtuA mixed with TtuB-COSH (molar ratio 1:3, 0.6 mM:2.0 mM), incubated at 298 K for 5 min, reduced with sodium dithionite, frozen; X-band spectra at 7, 12 and 29 K; compared with TtuA without TtuB-COSH; settings: both partners purified

Row | Molecule | X-ray crystal structure, 2.2 Å [1] | EPR spectroscopy, X-band, 12 K (holo-TtuA) | binding result [2]
1 | [S]12[Fe]3[S]4[Fe]1[S]1[Fe]2[S]3[Fe]41 [[4Fe-4S] cluster] | unique Fe site of the [4Fe-4S] cluster and the C-terminus of TtuB was observed | TtuA in the absence of TtuB-COSH is the typical rhombic signal of the [4Fe-4S] cluster | –
2 | B1 | – | – | binds
